Test results as given in paper PMC11840788, “3,3′-Diindolylmethane (DIM): A Molecular Scaffold for Inhibition of WWP1 and WWP2, Members of the NEDD4 Family HECT E3 Ligases” (ACS Omega, 2025).
“And” between values parts separate entries of the source, which are not always exact repeats. Equal entries are not always repeated.

Experiments:
[1] = biological target: T1, WWP1 (His-tagged WWP1-L34H) (Homo sapiens, UniProt Q9H0M0); test: in vitro autoubiquitination assay (single shot and dose dependency), WWP1; format: biochemical
T1 construct: WWP1- 2,3-linker-WW3-WW4-HECT (WWP1-L34H); made in house; host or cells: E. coli BL21-CodonPlus RP (plasmid pET32a-WWP1-L34H, gift of Dr Wenyu Wen)
Description: (§1) A single shot in vitro autoubiquitination assay was performed for I3C, DIM and each of the derivatives against WWP1 and WWP2 using a compound concentration of 1 mM (1% DMSO) (SI Figure S3). […] These active compounds were then subjected to a detailed dose dependency analysis leading to IC50 values. This strategy has previously been employed to screen other WWP1/WWP2 small molecule inhibitors as well as used to assess I3C inhibition toward NEDD4-1.[29],[32] In this way, compounds displaying a relative activity (RA) of less than 50% in the single shot assay were further screened for dose-dependency using a logarithmic concentration range from 10 nM to 1 mM (1% DMSO) (SI Figure S4). […] These were confirmed by counter assays to remove compounds possibly interacting with other enzymes in the assay or interfering with the assay directly (SI Table S1).
(§2) Cell lysate containing His-tagged WWP1-L34H or GST-tagged WWP2-FL proteins were incubated on either 96-well Clear Pierce glutathione or nickel-coated plates for 1 h. Reaction mixtures of either 3 ng/well GST-Uba1 and 15 ng/well UbcH7 or 10 ng/well His-Uba1 and 150 ng/well His-UbcH7 were incubated together in 25 mM Tris pH 8.0, 100 mM NaCl, 4 mM MgCl2 containing 60 ng/well FLAG-ubiquitin and 1.25 mM ATP for 40 min. A prior 1% BSA plate blocking step is required for nickel-coated plates. After plate washing, 2 μL of the compound was added at the desired concentration (1% DMSO) followed by 18 μL of the reaction mixture. This was then incubated for 2 h with 0 and 100% controls before 100 μL of anti-FLAG M2-Peroxidase HRP (1:10,000 PBST) was added to each well and incubated for 1 h. Finally, 100 μL of 1 × TMB substrate solution (Invitrogen) was added to each well and incubated for up to 10 min until sufficient blue color change was observed. To stop the reaction, 100 μL of 1 M HCl was added. For the counter assay, 3 ng/well GST-Uba1 and 200 ng/well UbcH7 were incubated with the other reaction mixture components for 1 h before incubating onto plates for a further 1 h. All other steps were followed. The plates were washed three times with PBST (and 15 mM Imidazole) between each step. Quantification was measured by absorbance read at 450 nm. All assay optimizations were as previously reported.[32] IC50 nonlinear regression curves were calculated in GraphPad v10.2 (Prism). […]
(§3) Auto-ubiquitination Assay
(§4) Cell lysate containing His-tagged WWP1-L34H or GST-tagged WWP2-FL proteins were incubated on either 96-well Clear Pierce glutathione 2 or nickel-coated plates for 1 hour. Reaction mixtures of either 3 ng/well GST-Uba1 and 15 ng/well UbcH7 or 10 ng/well His-Uba1 and 150 ng/well His-UbcH7 were incubated together in 25 mM Tris pH 8.0, 100 mM NaCl, 4 mM MgCl2 containing 60 ng/well FLAG-ubiquitin and 1.25 mM ATP for 40 minutes. A prior 1 % BSA plate blocking step is required for nickel-coated plates. After plate washing, 2 μL of the compound was added at the desired concentration (1 % DMSO) followed by 18 μL of the reaction mixture. This was then incubated for 2 hours with 0% and 100% controls before 100 μL of anti-FLAG M2-Peroxidase HRP (1: 10,000 PBST) was added to each well and incubated for 1 hour.
(§5) Finally, 100 μL of 1 × TMB substrate solution (Invitrogen) was added to each well and […]
(§6) incubated for up to 10 minutes until sufficient blue colour change was observed. To stop the reaction, 100 μL of 1 M HCl was added. For the counter assay, 3 ng/well GST-Uba1 and 200 ng/well UbcH7 were incubated with the other reaction mixture components for 1 hour before incubating onto plates for a further 1 hour. All other steps were followed.
(§7) The plates were washed three times with PBST (and 15 mM Imidazole) between each step. Quantification was measured by absorbance read at 450 nm. All assay optimisations have been previously reported by Watt and colleagues3.
(§8) Relative activity (RA) was determined by comparing the autoubiquitination of the WWP ligases in the presence of each compound, i.e TMB absorbance (450 nm), to the […]

[2] = biological target: T2, WWP2 (GST-tagged WWP2-FL) (Homo sapiens, UniProt O00308); test: in vitro autoubiquitination assay (single shot and dose dependency), WWP2; format: biochemical; conditions: single shot, compound at 1 mM (1% DMSO), standardized to 0 and 100% controls
T2 construct: Full- length WWP2 (WWP2-FL); made in house; host or cells: E. coli BL21-CodonPlus RP (plasmid pGEX2T-WWP2-FL, Dr Andrew Chantry's Lab)
Description: as §1, §2, §3, §4, §5, §6, §7, §8

WWP1 HECT domain [3] = biological target: WWP1 HECT domain; design: method as in PMID 31097636; conditions: microscale thermophoresis, read-out: KD (dissociation constant) WWP1; cited from earlier work
WWP1 HECT domain [4] = system: WWP1 HECT domain; design: method as in doi:10.1016/j.phytol.2023.01.002; conditions: thermal shift analysis; cited from earlier work

T1 sequence (Q9H0M0 415-922, stated change not applied): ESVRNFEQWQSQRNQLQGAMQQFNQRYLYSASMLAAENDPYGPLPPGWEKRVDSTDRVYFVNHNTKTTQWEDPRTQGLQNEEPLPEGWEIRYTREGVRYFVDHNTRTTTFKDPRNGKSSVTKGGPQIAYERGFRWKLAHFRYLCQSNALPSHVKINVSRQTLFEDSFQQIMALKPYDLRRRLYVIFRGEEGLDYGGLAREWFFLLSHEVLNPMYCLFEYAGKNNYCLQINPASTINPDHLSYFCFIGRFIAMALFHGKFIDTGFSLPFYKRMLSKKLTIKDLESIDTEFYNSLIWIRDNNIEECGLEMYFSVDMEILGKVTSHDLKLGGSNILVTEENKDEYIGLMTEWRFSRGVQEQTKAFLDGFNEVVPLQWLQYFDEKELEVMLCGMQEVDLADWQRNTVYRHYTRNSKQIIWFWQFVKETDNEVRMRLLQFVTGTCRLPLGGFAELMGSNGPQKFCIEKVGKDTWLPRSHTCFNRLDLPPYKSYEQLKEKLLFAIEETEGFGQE
T2 sequence (O00308 whole entry): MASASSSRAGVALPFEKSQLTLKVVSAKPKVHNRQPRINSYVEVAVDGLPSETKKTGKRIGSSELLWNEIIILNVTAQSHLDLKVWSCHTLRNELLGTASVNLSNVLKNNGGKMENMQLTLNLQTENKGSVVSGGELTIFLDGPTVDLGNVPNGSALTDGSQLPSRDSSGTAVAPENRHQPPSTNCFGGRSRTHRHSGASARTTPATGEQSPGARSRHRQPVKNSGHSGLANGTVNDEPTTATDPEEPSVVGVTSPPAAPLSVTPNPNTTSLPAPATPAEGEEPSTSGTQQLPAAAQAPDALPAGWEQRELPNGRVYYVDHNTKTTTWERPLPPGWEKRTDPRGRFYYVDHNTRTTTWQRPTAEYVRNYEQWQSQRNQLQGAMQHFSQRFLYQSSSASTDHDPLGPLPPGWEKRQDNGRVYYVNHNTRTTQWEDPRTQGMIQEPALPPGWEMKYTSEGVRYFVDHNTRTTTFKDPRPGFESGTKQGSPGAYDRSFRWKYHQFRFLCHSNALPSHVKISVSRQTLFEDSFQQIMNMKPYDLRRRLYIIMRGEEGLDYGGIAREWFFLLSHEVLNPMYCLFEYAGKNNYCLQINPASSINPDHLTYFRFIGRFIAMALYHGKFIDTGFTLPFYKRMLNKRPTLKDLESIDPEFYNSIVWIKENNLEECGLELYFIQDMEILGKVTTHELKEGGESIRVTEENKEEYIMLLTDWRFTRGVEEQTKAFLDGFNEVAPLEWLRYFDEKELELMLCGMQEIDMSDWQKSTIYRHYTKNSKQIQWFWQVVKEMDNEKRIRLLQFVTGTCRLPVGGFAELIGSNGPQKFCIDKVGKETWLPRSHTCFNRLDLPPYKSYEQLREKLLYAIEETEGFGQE

In the case of OCc1c[nH]c2ccccc12 [Compound I3C, Indole-3-carbinol, reference compound], the “inhibition of WWP1 (in words)” value ([1]; autoubiquitination assay) is reported as “displayed inhibition”, the IC50 ([1]; nonlinear regression of RA against log concentration, 1 mM to 10 nM, 1% DMSO) is reported as ~1010 µM and 1010 µM and the “WWP1 RA (%) relative activity” value ([1]; single shot, compound at 1 mM (1% DMSO), standardized to 0 and 100% controls) is reported as 48.2 ± 8.6% and 48.2%. The “WWP2 RA (%) relative activity” value [2] was 88.0 ± 7.5% and 88.0%, the Kd (WWP1 HECT domain [3]) was 0.45 µM and the “shift in Tm” value (WWP1 HECT domain [4]) was 3.8 °C.
